Laboratory results as given in patent US20260373497A1, “MOLECULAR MACHINES STIMULATE INTERCELLULAR CALCIUM WAVES AND CAUSE MUSCLE CONTRACTION” (William Marsh Rice University, priority 2022, published 2026).
“Also recorded” adds a separate entry of the source.

Legend:
C2C12 myoblasts [1] = assay: MM-induced calcium release in C2C12 cells (Fluo-4); format: cell-based, mouse; details: for Calcium release in C2C12 myoblasts: light for 500 ms, MM 1 8 μM
Text: FIGS. 36A-36D—MMs cause intracellular calcium waves in C2C12 myoblasts, a) MM 1 (unidirectional, ~3 MHz) structure showing rotor and stator. b) Rotation cycle of a MM. c) Confocal microscope images of C2C12 myoblasts with MM and labeled with Fluo-4. Stimulated areas are indicated by the red arrows immediately before stimulation and 10 s after stimulation. Scale bar=30 μm. d) Average normalized fluorescence intensity trace of stimulated C2C12 cells myoblasts treated with either DMSO (n=6) or MM 1 (n=7) and stimulated with 400-nm laser light for 500 ms. Laser stimulation is shown by the cyan line.
Fluo-4 is an intracellular calcium dye that fluoresces green when binding to calcium and is commonly used to observe intracellular calcium spikes in many cell types.
C2C12 cells will undergo differentiation from myoblasts to multinucleated myotubes when allowed to grow to confluence. This process occurs over the course of several days and can be sped up by replacing normal growth media with low serum differentiation media (Jang et al., 2022). The responsiveness of C2C12 cells to MM stimulation changes was tracked as they went through the process of growth and differentiation (FIG. 39). When plated on the first day, the cells are in low confluency, and show clear morphology of myoblasts. The cells reach around 100% confluency on day 4 (FIG. 39A), at which point they begin to differentiate to form the myotubes. They show lowest uptake of Fluo-4 and nearly no responses. After about 9 days of growth in regular growth media, myotubes begin to form, which have a fibrous, striated and multinucleated appearance, and the uptake of Fluo-4 could be observed again.

C2C12 myoblasts [2] = assay: ROS generation (CellROX green) in C2C12 myoblasts; format: cell-based, mouse; details: MM 1 + light
Method: Additionally, to further confirm that the cellular calcium release is not the result of a photodynamic effect caused by reactive oxygen species (ROS) generation, ROS generation was measured from each MM using the ROS sensitive dye CellROX green. CellROX fluoresces when oxidized by ROS in living cells and can be used to measure general oxidative stress in cells due to ROS generation. […] To confirm that the ROS generated by MM 1 was not causing intracellular calcium release, cells were treated with a combination of thiourea (TU, 50 mM) and [COMPOUND LEFT OUT] (SA, 1.25 mM) to scavenge the ROS that were produced. […] If ROS generation by MM 1 was the cause of calcium release, then less calcium release would be expected with treatment of ROS scavengers.

HEK293 cells = assay: Pharmacological blocking of MM 1-induced calcium responses; format: cell-based; details: MM 1 + light in calcium-free PBS
Method: FIGS. 14A-14J—Mechanistic study of MM-induced ICW. (a) Schematic of possible mechanisms by which calcium can enter the cytoplasm. Prepared with Biorender.com. (b) Confocal microscope images of HEK293 cells treated with MM 1, MitoTracker Green, ER Tracker Red, and CellMask Deep Red. Scale bars are both 20 μm and apply to the images in the same row. (c-h) Calcium waves elicited by MM 1-treated cells (c) in calcium-free PBS, (d) in RR (1 μM), (e) in Gd^3+ (50 μM), (f) after treatment of cells with Th (1 μM), (g) in Ry (100 μM), (h) in XeC (25 μM), (i) in U-73 (10 μM), (j) after pre-treatment of cells with Cyto D (2 μM). The solid line represents the calcium profiles averaged from six independent cells. The shaded region represents the standard error of the mean (n=6). Stimuli were presented after 30 s of imaging in each case, and the time of stimulus presentation is indicated by the vertical cyan line. […] All stimuli were delivered with a pulse width of 250 ms to a circular area of diameter 5 μm at a power ranging from 3.2×10^2 W cm^−2 to 5.1×10^2 W cm^−2. For all plots, the cyan line indicates the time of stimulus presentation. Controls and experimental groups were imaged and stimulated on the same day using the same conditions and with the same batch of cells. Error bars in the bar graphs represent the standard deviation of the mean of n=3 experiments (at least 6 stimulated cells per experiment). Statistical analyses were performed using a one-tailed Welch's t-test. * P-value<0.05, ** P-value<0.01, *** P-value<0.001, **** P-value<0.0001.
Imaging was conducted in imaging extracellular buffer (iECB; 119 mM NaCl, 5 mM KCl, 10 mM HEPES, 2 mM CaCl2, 1 mM MgCl2 (pH 7.2); 320 mOsm). Imaging in calcium-free medium was conducted in phosphate-buffered saline. Cells were prepared for imaging by seeding a 35 mm Ibidi imaging dish with ~50,000 cells in 1 mL of DMEM, and grown at 37 °C, 5% CO2 for 2 days. Prior to imaging, cells were incubated with dyes and/or molecules resuspended in complete growth medium at the appropriate concentration (MM 1 (8 μM), MM 2 (8 μM), MM 3 (24 μM), MM 4 (8 μM), Fluo-4 (2 μM)). MM and Fluo-4 were loaded into cells for 45 min. Cells treated with thapsigargin were exposed for 30 min after MM and Fluo-4 loading. Cells treated with organelle-targeting dyes were exposed for 5 min after MM loading. Ruthenium red and Gd^3+ were included in the imaging medium during stimulation and were associated with cells for 10 min prior to imaging. At the end of incubation, this medium was replaced with the iECB. Unless otherwise specified, all experiments were replicated in triplicate.
Pharmacological Experiments: In pharmacological blocking experiments, cells were loaded with MM and Fluo-4 as previously described. Typical imaging experiments in previously described extracellular buffer were then conducted as a positive control. Then, the imaging buffer was replaced, and the cells were treated as required for each experiment. After a brief recovery period, the cells were imaged again, and six different cells were stimulated. Experiments in calcium-free imaging buffer used phosphate buffered saline. Thapsigargin (Th: 1 μM) and Cytochalasin D (Cyto D; 2 μM) were incubated with cells in complete growth medium for 1 h (Th) or 2 h (Cyto D) before imaging. Ruthenium red (RR; 1 μM), gadolinium (Gd; 50 μM), ryanodine (Ry; 100 μM), xestospongin C (XeC; […]), and U-73122 (U-73; 10 μM) were administered directly into the imaging medium. Cells were incubated in the medium for ~5 min prior to imaging. Traces presented are representative results across at least six cells from single experiments, while bar graphs represent the average results across at least three distinct experiments.

SMILES | Calcium release with scavenger combination (C2C12 myoblasts [1]; MM 1 + light, with thiourea-containing scavenger combination (1× and 0.2×)) | Responsiveness to MM stimulation during differentiation (C2C12 myoblasts [1]; MM 1, day 1 to day 3) | Responsiveness to MM stimulation during differentiation (C2C12 myoblasts [1]; MM 1, day 4 to day 8) | Responsiveness to MM stimulation during differentiation (C2C12 myoblasts [1]; MM 1, day 9) | Calcium release at lower laser power (C2C12 myoblasts [1]; MM 1, lower laser powers) | Calcium release in C2C12 myoblasts (C2C12 myoblasts [1]) | ROS generation (C2C12 myoblasts [2]; CellROX green) | ROS generation with scavenger combination (C2C12 myoblasts [2]; with thiourea-containing scavenger combination (1× and 0.2×)) | Calcium response amplitude in absence of extracellular calcium (HEK293 cells) | Calcium release at 3 times higher concentration (C2C12 myoblasts [1]; MM 3, 3×)
CC1Cc2ccc3ccccc3c2C1=C1c2ccccc2Sc2cc(NCCN(C)C)ccc21 (centres unmarked) [MM 1] | without changing the magnitude of calcium release | slight decrease of the responsivity from day 1 to day 3 | lose their responsiveness to MM stimulation | increase in responsiveness to MM stimulation | lower calcium release | robust intracellular calcium release; also recorded: calcium transients several times larger in magnitude than MM 2 | generated more ROS than the DMSO negative control but less ROS than positive controls | decrease in ROS generation | showed no differences in response amplitude compared to a positive control in calcium-containing medium | 
CC1Cc2cc(NCCN(C)C)c3ccccc3c2C1=C1c2ccccc2-c2ccccc21 (centres unmarked) [MM 3] |  |  |  |  |  | did not induce any calcium release |  |  |  | no measurable increase in calcium release
